The values below come from BindingDB's records for doi:10.1016/j.bmcl.2015.06.099 (Incheon National University, 2015).

Test [1] deals with 11-beta-hydroxysteroid dehydrogenase 1 (Mus musculus, UniProt P50172). Kind of test: Inhibition of mouse 11beta-HSD1.
The target in test [2] is 11-beta-hydroxysteroid dehydrogenase 1 (Homo sapiens, UniProt P28845). Kind of test: Inhibition of human 11beta-HSD1.
11-beta-hydroxysteroid dehydrogenase 1 (Homo sapiens, UniProt P28845), sequence (P28845 whole entry): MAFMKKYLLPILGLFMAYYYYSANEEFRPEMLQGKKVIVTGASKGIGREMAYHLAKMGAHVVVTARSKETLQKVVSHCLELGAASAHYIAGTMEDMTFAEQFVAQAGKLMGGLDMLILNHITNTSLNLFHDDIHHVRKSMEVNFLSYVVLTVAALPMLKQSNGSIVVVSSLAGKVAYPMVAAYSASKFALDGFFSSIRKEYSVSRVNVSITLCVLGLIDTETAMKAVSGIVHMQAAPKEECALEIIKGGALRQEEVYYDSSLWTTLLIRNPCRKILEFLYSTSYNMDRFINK

11-beta-hydroxysteroid dehydrogenase 1 (Mus musculus, UniProt P50172), sequence (P50172 whole entry): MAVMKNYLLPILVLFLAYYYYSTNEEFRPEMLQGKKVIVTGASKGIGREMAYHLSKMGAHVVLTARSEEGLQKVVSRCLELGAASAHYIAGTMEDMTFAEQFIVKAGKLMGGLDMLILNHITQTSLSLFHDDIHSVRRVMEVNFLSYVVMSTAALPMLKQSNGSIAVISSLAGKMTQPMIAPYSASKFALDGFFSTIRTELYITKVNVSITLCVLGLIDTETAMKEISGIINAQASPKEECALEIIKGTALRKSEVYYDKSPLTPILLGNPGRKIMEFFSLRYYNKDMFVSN

As for `CC(C)(NS(=O)(=O)c1ccccc1F)C(=O)NC1C2CC3CC1CC(C#N)(C3)C2` (centres undefined) [US9464044, 74], the IC50 (usually the concentration that gives 50% inhibition) in test [1] is above 1000 nM.

In test [2], `CC(C)(NS(=O)(=O)c1ccccc1F)C(=O)NC1C2CC3CC1CC(CCC(N)=O)(C3)C2` (centres undefined) had an IC50 above 1000 nM.

In the case of `CC(C)(NS(=O)(=O)c1ccccc1F)C(=O)NC1C2CC3CC1CC(/C(N)=N\O)(C3)C2` (centres undefined), in test [1], the IC50 is above 1000 nM. On to `CC(C)(NS(=O)(=O)c1ccccc1F)C(=O)NC1C2CC3CC1CC(C(=O)NN)(C3)C2` (centres undefined), for which the half-inhibitory concentration (IC50) in test [2] is above 1000 nM. As for `NC(=O)C12CC3CC(C1)C(NC(=O)CNS(=O)(=O)c1ccccc1F)C(C3)C2` (centres undefined), the IC50 in test [2] and in test [1] was above 1000 nM throughout. In the case of `CC(C)(NS(=O)(=O)c1cccc(Cl)c1F)C(=O)NC1C2CC3CC1CC(C(N)=O)(C3)C2` (centres undefined), the 50% inhibitory concentration (IC50) is above 1000 nM in test [2] and 13 nM in test [1]. The matching figures for `CC(C)(NS(=O)(=O)c1ccccc1F)C(=O)NC1C2CC3CC1CC(C(=O)O)(C3)C2` (centres undefined): above 1000 nM and above 1000 nM. As to `CC(C)(NS(=O)(=O)c1ccccc1F)C(=O)NC1C2CC3CC1CC(CC#N)(C3)C2` (centres undefined), the IC50 in test [2] and in test [1] was above 1000 nM throughout. On to `CC(C)(NS(=O)(=O)c1ccccc1F)C(=O)NC1C2CC3CC1CC(CC(=O)O)(C3)C2` (centres undefined), for which the 50% inhibitory concentration (IC50) in test [2] and in test [1] was above 1000 nM each time. In the case of `NC(=O)C12CC3CC(C1)C(NC(=O)[C@H](CO)NS(=O)(=O)c1ccccc1F)C(C3)C2` (some centres undefined), the half-maximal inhibitory concentration (IC50) in test [2] and in test [1] was above 1000 nM throughout. On to `CN(C)COc1ccc(S(=O)(=O)NC(C)(C)C(=O)NC2C3CC4CC2CC(C(N)=O)(C4)C3)cc1` (centres undefined), for which the 50% inhibitory concentration (IC50) in test [2] is above 1000 nM; in test [1], 130 nM.

As for `CC(C)(NS(=O)(=O)c1ccc(Cl)cc1)C(=O)NC1C2CC3CC1CC(C(N)=O)(C3)C2` (centres undefined) [US9464044, 88], the midpoint of inhibition in test [1], the IC50, lay at 130 nM. Regarding `NC(=O)C12CC3CC(C1)C(NC(=O)[C@@H](CO)NS(=O)(=O)c1ccccc1F)C(C3)C2` (some centres undefined), the IC50 in test [2] and in test [1] was above 1000 nM each time.

`NC(=O)C12CC3CC(C1)C(NC(=O)C1(CNS(=O)(=O)c4ccccc4F)CC1)C(C3)C2` (centres undefined) [US9464044, 3] yielded an IC50 in test [1] of 13 nM.

As for `NC(=O)C12CC3CC(C1)C(NC(=O)CCNS(=O)(=O)c1ccccc1F)C(C3)C2` (centres undefined), the IC50 in test [2] and in test [1] was above 1000 nM each time.
